Data on 28 compounds can be found in patent US11149018B2, “Substituted N-arylethyl-2-aminoquinoline-4-carboxamides and use thereof” (Bayer Aktiengesellschaft, priority 2017, dated 2021).

The assay addresses FP receptor (Homo sapiens (Human), UniProt P43088). The assay is described as follows: In vitro test of inhibition of human FP receptor activity (PGF2α-induced calcium flux in FP-expressing CHEM1 cells). Format: cell-based. Particulars: PGF2α 2 nM, some mean values of multiple determinations. The method in brief:
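FP antagonism in FP-expressing CHEM1 cells loaded with Fluo-8. Compound preincubated 10 min at 37° C, then receptor stimulated with 2 nM (final) PGF2α in calcium-free Tyrode with 2 mM CaCl2.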

The structures appear in SMILES notation. pIC50: −log10 of the molar value.

Sequence of FP receptor (P43088 whole entry): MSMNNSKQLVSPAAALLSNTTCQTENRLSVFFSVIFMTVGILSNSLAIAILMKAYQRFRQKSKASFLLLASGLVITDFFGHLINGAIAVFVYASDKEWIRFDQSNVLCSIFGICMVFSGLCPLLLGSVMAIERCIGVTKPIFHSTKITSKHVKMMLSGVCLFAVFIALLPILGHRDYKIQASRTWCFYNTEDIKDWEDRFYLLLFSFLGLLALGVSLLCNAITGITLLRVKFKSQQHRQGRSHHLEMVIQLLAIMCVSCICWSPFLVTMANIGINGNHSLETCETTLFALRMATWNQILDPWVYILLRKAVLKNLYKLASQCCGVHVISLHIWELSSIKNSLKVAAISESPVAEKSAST

With `Cc1c(N2CCCC2)nc2ccc(Br)cc2c1C(=O)NCC(CCC(=O)O)c1c(F)ccc(F)c1Cl` (single isomer, unassigned; (+)) [Example 215, (+)-5-({[6-Bromo-3-methyl-2-(pyrrolidin-1-yl)quinolin-4-yl]carbonyl}amino)-4-(2-chloro-3,6-difluorophenyl)pentanoic acid], the pIC50 was 8.41.
Turning to `Cc1c(N2CCCCC2)nc2ccc(Br)cc2c1C(=O)NCC(CCC(=O)O)c1cc(F)ccc1Cl` (single isomer, unassigned; (-)) [Example 6, (−)-5-({[6-Bromo-3-methyl-2-(piperidin-1-yl)quinolin-4-yl]carbonyl}amino)-4-(2-chloro-5-fluorophenyl)pentanoic acid], the pIC50 was 8.11.
For the compound `Cc1c(N2CCCC(C)(C)C2)nc2ccc(Br)cc2c1C(=O)NCC(CCC(=O)O)c1ccccc1Cl` (racemic) [Example 42, (+/−)-5-({[6-Bromo-2-(3,3-dimethylpiperidin-1-yl)-3-methylquinolin-4-yl]carbonyl}amino)-4-(2-chlorophenyl)pentanoic acid], the negative logarithm of the IC50 (pIC50) was 6.89.
With `Cc1c(N2CCCC(C)(O)C2)nc2ccc(Br)cc2c1C(=O)NCC(CCC(=O)O)c1ccccc1Cl` (stereo not shown) [Example 62, 5-[({6-Bromo-2-[3-hydroxy-3-methylpiperidin-1-yl]-3-methylquinolin-4-yl}carbonyl)amino]-4-(2-chlorophenyl)pentanoic acid], the negative-log IC50 (pIC50) is 6.96.
The result for `Cc1c(N2CCCCCC2)nc2ccc(Br)cc2c1C(=O)NCC(CCC(=O)O)c1ccccc1C(F)(F)F` (single isomer, unassigned; (-)) [Example 121, (−)-5-({[2-(Azepan-1-yl)-6-bromo-3-methylquinolin-4-yl]carbonyl}amino)-4-[2-(trifluoromethyl)phenyl]pentanoic acid] reads 8.39.
For `Cc1c(N2CCCC(C)C2)nc2ccc(Br)cc2c1C(=O)NCC(CCC(=O)O)c1cc(F)ccc1Cl` (stereo not shown) [Example 17, 5-[({6-Bromo-3-methyl-2-[3-methylpiperidin-1-yl]quinolin-4-yl}carbonyl)amino]-4-(2-chloro-5-fluorophenyl)pentanoic acid], the pIC50 is 8.39.
As for `Cc1c(N2CC(C)CC(C)C2)nc2ccc(Br)cc2c1C(=O)NCC(CCC(=O)O)c1ccccc1Cl` (stereo not shown) [Example 63, 5-[({6-Bromo-2-[3,5-dimethylpiperidin-1-yl]-3-methylquinolin-4-yl}carbonyl)amino]-4-(2-chlorophenyl)pentanoic acid], the pIC50 was 8.14.
For `Cc1c(N2CCCC(C(F)(F)F)C2)nc2ccc(Br)cc2c1C(=O)NCC(CCC(=O)O)c1ccccc1Cl` (stereo not shown) [Example 53, 5-[({6-Bromo-3-methyl-2-[3-(trifluoromethyl)piperidin-1-yl]quinolin-4-yl}carbonyl)amino]-4-(2-chlorophenyl)pentanoic acid], the negative-log IC50 (pIC50) was 8.24.
With `COCCNc1nc2ccc(Br)cc2c(C(=O)NCC(CCC(=O)O)c2ccccc2Cl)c1C` (racemic) [Example 104, (+/−)-5-[({6-Bromo-2-[(2-methoxyethyl)amino]-3-methylquinolin-4-yl}carbonyl)amino]-4-(2-chlorophenyl)pentanoic acid], the pIC50 is 6.39.
For the compound `Cc1c(N2CCCC(C(C)C)C2)nc2ccc(Br)cc2c1C(=O)NCC(CCC(=O)O)c1ccccc1Cl` (stereo not shown) [Example 91, 5-[({6-Bromo-2-[3-isopropylpiperidin-1-yl]-3-methylquinolin-4-yl}carbonyl)amino]-4-(2-chlorophenyl)pentanoic acid], the negative-log IC50 (pIC50) was 8.00.
For the compound `Cc1c(N2CCCCC2)nc2ccc(Br)cc2c1C(=O)NCC(CCC(=O)O)c1c(F)cccc1OC(F)F` (single isomer, unassigned; (+)) [Example 184, (+)-5-({[6-Bromo-3-methyl-2-(piperidin-1-yl)quinolin-4-yl]carbonyl}amino)-4-[2-(difluoromethoxy)-6-fluorophenyl]pentanoic acid], the negative-log IC50 (pIC50) was 7.89.
As for `Cc1c(N2CCCCC2)nc2ccc(Br)cc2c1C(=O)NCC(CCC(=O)O)c1cc(F)ccc1F` (single isomer, unassigned; (-)) [Example 256, (−)-5-({[6-Bromo-3-methyl-2-(piperidin-1-yl)quinolin-4-yl]carbonyl}amino)-4-(2,5-difluorophenyl)pentanoic acid], the negative-log IC50 (pIC50) is 8.08.
In the case of `Cc1c(N2CCCCCC2)nc2ccc(Br)cc2c1C(=O)NCC(CCC(=O)O)c1c(F)ccc(F)c1Cl` (single isomer, unassigned; (+)) [Example 219, (+)-5-({[2-(Azepan-1-yl)-6-bromo-3-methylquinolin-4-yl]carbonyl}amino)-4-(2-chloro-3,6-difluorophenyl)pentanoic acid], the pIC50 was 7.54.
Consider `Cc1c(N2CCCCCC2)nc2ccc(Br)cc2c1C(=O)NCC(CCC(=O)O)c1ccccc1OC(F)(F)F` (single isomer, unassigned; (-)) [Example 136, (−)-5-({[2-(Azepan-1-yl)-6-bromo-3-methylquinolin-4-yl]carbonyl}amino)-4-[2-(trifluoromethoxy)phenyl]pentanoic acid], for which the negative logarithm of the IC50 (pIC50) is 8.96.
`CCCCNc1nc2ccc(Br)cc2c(C(=O)NCC(CCC(=O)O)c2ccccc2Cl)c1C` (racemic) [Example 101, (+/−)-5-({[6-Bromo-2-(butylamino)-3-methylquinolin-4-yl]carbonyl}amino)-4-(2-chlorophenyl)pentanoic acid]: the negative-log IC50 (pIC50) is 6.35.
Consider `Cc1c(N2CCCCC2)nc2ccc(Br)cc2c1C(=O)NCC(CCC(=O)O)c1c(Cl)cccc1Cl` (racemic) [Example 241, (+/−)-5-({[6-Bromo-3-methyl-2-(piperidin-1-yl)quinolin-4-yl]carbonyl}amino)-4-(2,6-dichlorophenyl)pentanoic acid], for which the negative-log IC50 (pIC50) was 7.92.
Regarding `Cc1c(N2CC=CCC2)nc2ccc(Br)cc2c1C(=O)NCC(CCC(=O)O)c1ccccc1Cl` (single isomer, unassigned) [Example 31, 5-({[6-Bromo-2-(3,6-dihydropyridin-1(2H)-yl)-3-methylquinolin-4-yl]carbonyl}amino)-4-(2-chlorophenyl)pentanoic acid], the pIC50 was 7.54.
`Cc1c(N2CCCC2)nc2ccc(Br)cc2c1C(=O)NCC(CCC(=O)O)c1cc(F)ccc1Cl` (racemic) [Example 13, (+/−)-5-({[6-Bromo-3-methyl-2-(pyrrolidin-1-yl)quinolin-4-yl]carbonyl}amino)-4-(2-chloro-5-fluorophenyl)pentanoic acid]: the pIC50 was 7.74.
The result for `Cc1c(N2CCCCC2)nc2ccc(Br)cc2c1C(=O)NCC(CCC(=O)O)c1c(Cl)ccc(F)c1F` (single isomer, unassigned; (-)) [Example 145, (−)-5-({[6-Bromo-3-methyl-2-(piperidin-1-yl)quinolin-4-yl]carbonyl}amino)-4-(6-chloro-2,3-difluorophenyl)pentanoic acid] reads 8.82; that for `Cc1c(N2CCS(=O)(=O)CC2)nc2ccc(Br)cc2c1C(=O)NCC(CCC(=O)O)c1ccccc1Cl` (racemic) [Example 87, (+/−)-5-({[6-Bromo-2-(1,1-dioxidothiomorpholin-4-yl)-3-methylquinolin-4-yl]carbonyl}amino)-4-(2-chlorophenyl)pentanoic acid], 6.26.
In the case of `CCC1CCCN(c2nc3ccc(Br)cc3c(C(=O)NCC(CCC(=O)O)c3ccccc3C(F)(F)F)c2C)C1` (single isomer, unassigned; (+)) [Example 196, (+)-5-[({6-Bromo-2-[3-ethylpiperidin-1-yl]-3-methylquinolin-4-yl}carbonyl)amino]-4-[2-(trifluoromethyl)phenyl]pentanoic acid], the pIC50 was 8.59.
Consider `Cc1ccccc1C(CCC(=O)O)CNC(=O)c1c(C)c(N2CCCCCC2)nc2ccc(Br)cc12` (racemic) [Example 243, (+/−)-5-({[2-(Azepan-1-yl)-6-bromo-3-methylquinolin-4-yl]carbonyl}amino)-4-(2-methylphenyl)pentanoic acid], for which the negative logarithm of the IC50 (pIC50) was 7.96.
Turning to `Cc1c(N2CCc3ccccc3C2)nc2ccc(Br)cc2c1C(=O)NCC(CCC(=O)O)c1ccccc1Cl` (racemic) [Example 84, (+/−)-5-({[6-Bromo-2-(3,4-dihydroisoquinolin-2(1H)-yl)-3-methylquinolin-4-yl]carbonyl}amino)-4-(2-chlorophenyl)pentanoic acid], the pIC50 is 7.55.
In the case of `Cc1c(N2CCCCC2)nc2ccc(Br)cc2c1C(=O)NCC(CCC(=O)O)c1c(F)cccc1C(F)(F)F` (single isomer, unassigned; (+)) [Example 162, (+)-5-({[6-Bromo-3-methyl-2-(piperidin-1-yl)quinolin-4-yl]carbonyl}amino)-4-[2-fluoro-6-(trifluoromethyl)phenyl]pentanoic acid], the pIC50 is 7.38.
`Cc1c(N2CCCC(C(F)F)C2)nc2ccc(Br)cc2c1C(=O)NCC(CCC(=O)O)c1ccccc1Cl` (stereo not shown) [Example 64, 5-[({6-Bromo-2-[3-(difluoromethyl)piperidin-1-yl]-3-methylquinolin-4-yl}carbonyl)amino]-4-(2-chlorophenyl)pentanoic acid]: the negative-log IC50 (pIC50) is 8.01.
Take `Cc1c(N2CCC(C)C2)nc2ccc(Br)cc2c1C(=O)NCC(CCC(=O)O)c1ccccc1Cl` (stereo not shown) [Example 36, 5-[({6-Bromo-3-methyl-2-[3-methylpyrrolidin-1-yl]quinolin-4-yl}carbonyl)amino]-4-(2-chlorophenyl)pentanoic acid]: the pIC50 was 7.66.
`Cc1c(N2CCCC(F)C2)nc2ccc(Br)cc2c1C(=O)NCC(CCC(=O)O)c1c(Cl)ccc(Cl)c1Cl` (stereo not shown) [Example 180, 5-[({6-Bromo-2-[3-fluoropiperidin-1-yl]-3-methylquinolin-4-yl}carbonyl)amino]-4-(2,3,6-trichlorophenyl)pentanoic acid]: the pIC50 is 7.85.
On to `Cc1c(N2CCCC(C)C2)nc2ccc(Br)cc2c1C(=O)NCC(CCC(=O)O)c1ccccc1OC(F)(F)F` (stereo not shown) [Example 140, 5-[({6-Bromo-3-methyl-2-[3-methylpiperidin-1-yl]quinolin-4-yl}carbonyl)amino]-4-[2-(trifluoromethoxy)phenyl]pentanoic acid], for which the negative-log IC50 (pIC50) was 8.64.
